These results are taken from US20260053932A1, “COMPOUNDS AND METHODS FOR THE TARGETED DEGRADATION OF ANDROGEN RECEPTOR AND ASSOCIATED METHODS OF USE” (Arvinas Operations, Inc., priority 2020, published 2026).

The structures appear in SMILES notation.

For one assay, the system named is androgen receptor (AR) in LNCaP and/or VCaP cells. The experiment in a line: Androgen Receptor ELISA assay (AR degradation). The settings on record: LNCaP and/or VCaP cells; 5 hours incubation; media with R1881; read-out: DC50 Code* (degradation of AR ELISA). The class given is cell-based. Summed up:
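VCaP cells grown ≥3 days, then treated 5 h with compound in media containing 1 nM R1881 (10× stock). Cells lysed and AR quantified by sandwich ELISA (mouse AR detection Ab, HRP anti-mouse, TMB). DC50 and Dmax derived from AR degradation.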
As to `N#Cc1ccc(O[C@H]2CC[C@H](NC(=O)c3cnc(N4CCC(CN(C5CCOC5)[C@H]5C[C@H](Oc6ccc7c(c6)C(=O)N(C6CCC(=O)NC6=O)C7=O)C5)CC4)cn3)CC2)cc1Cl` (stereo partly shown) [Compound 62, N-((1r,4r)-4-(3-chloro-4-cyanophenoxy)cyclohexyl)-5-(4-((((1r,3r)-3-((2-(2,6-dioxopiperidin-3-yl)-1,3-dioxoisoindolin-5-yl)oxy)cyclobutyl) (tetrahydrofuran-3-yl)amino)methyl)piperidin-1-yl)pyrazine-2-carboxamide], the DC50 was under 1 nM. The same measure, in the same setting: the value for `CC(C)N(CC1CCN(c2ccc(C(=O)N[C@H]3CC[C@H](Oc4ccc(C#N)c(Cl)c4)CC3)nn2)CC1)[C@H]1CC[C@H](Oc2ccc3c(c2)C(=O)N(C2CCC(=O)NC2=O)C3=O)CC1` (stereo partly shown) [Compound 47, N-((1r,4r)-4-(3-chloro-4-cyanophenoxy)cyclohexyl)-6-(4-((((1r,4r)-4-((2-(2,6-dioxopiperidin-3-yl)-1,3-dioxoisoindolin-5-yl)oxy)cyclohexyl) (isopropyl)amino)methyl)piperidin-1-yl)pyridazine-3-carboxamide] was under 1 nM; that for `CC(C)N(CC1CCN(c2cnc(C(=O)N[C@H]3CC[C@H](Oc4ccc(C#N)c(Cl)c4)CC3)cn2)CC1)[C@H]1C[C@H](Oc2ccc3c(c2F)C(=O)N(C2CCC(=O)NC2=O)C3=O)C1` (stereo partly shown) [Compound 52, N-((1r,4r)-4-(3-chloro-4-cyanophenoxy)cyclohexyl)-5-(4-((((1r,3r)-3-((2-(2,6-dioxopiperidin-3-yl)-4-fluoro-1,3-dioxoisoindolin-5-yl)oxy)cyclobutyl) (isopropyl)amino)methyl)piperidin-1-yl)pyrazine-2-carboxamide] was under 1 nM; that for `COc1cc(O[C@H]2CC[C@H](NC(=O)c3cnc(N4CC(CN(C(C)C)[C@H]5CC[C@H](Oc6ccc7c(c6)C(=O)N(C6CCC(=O)NC6=O)C7=O)CC5)C4)cn3)CC2)ccc1C#N` (stereo partly shown) [Compound 22, N-((1r,4r)-4-(4-cyano-3-methoxyphenoxy)cyclohexyl)-5-(3-((((1r,4r)-4-((2-(2,6-dioxopiperidin-3-yl)-1,3-dioxoisoindolin-5-yl)oxy)cyclohexyl) (isopropyl)amino)methyl)azetidin-1-yl)pyrazine-2-carboxamide] was under 1 nM. As for `COc1cc(O[C@H]2C[C@H](N(CC3CCN(c4cnc(C(=O)N[C@H]5CC[C@H](Oc6ccc(C#N)c(Cl)c6)CC5)cn4)CC3)C(C)C)C2)cc2c1C(=O)N(C1CCC(=O)NC1=O)C2=O` (stereo partly shown) [Compound 14, N-((1r,4r)-4-(3-chloro-4-cyanophenoxy)cyclohexyl)-5-(4-((((1r,3r)-3-((2-(2,6-dioxopiperidin-3-yl)-7-methoxy-1,3-dioxoisoindolin-5-yl)oxy)cyclobutyl) (isopropyl)amino)methyl)piperidin-1-yl)pyrazine-2-carboxamide], the DC50 was under 1 nM. For `CC(C)N(CC1CCN(c2cnc(C(=O)N[C@H]3CC[C@H](Oc4ccc(C#N)c(Cl)c4)CC3)cn2)CC1)[C@H]1C[C@H](Oc2ccc3c(c2)C(=O)N(C2CCC(=O)NC2=O)C32CC2)C1` (stereo partly shown) [Compound 73, N-((1r,4r)-4-(3-chloro-4-cyanophenoxy)cyclohexyl)-5-(4-((((1r,3r)-3-((2′-(2,6-dioxopiperidin-3-yl)-3′-oxospiro[cyclopropane-1,1′-isoindolin]-5′-yl)oxy)cyclobutyl) (isopropyl)amino)methyl)piperidin-1-yl)pyrazine-2-carboxamide], the DC50 is over 100 nM.

Staying with this assay, now noted: degradation of AR ELISA in LNCaP and/or VCaP cells; Table 2C; read-out: DC50 Code*.
For `[2H]C([2H])([2H])Oc1cc(O[C@H]2C(C)(C)[C@H](NC(=O)c3cnc(N4CCC(CN(C(C)C)[C@H]5C[C@H](Oc6cc(OC([2H])([2H])[2H])c7c(c6)C(=O)N(C6CCC(=O)NC6=O)C7=O)C5)CC4)cn3)C2(C)C)ccc1C#N` (mixture of isomers) [compound 202, rac-N-((1r,3r)-3-(4-cyano-3-(methoxy-d3)phenoxy)-2,2,4,4-tetramethylcyclobutyl)-5-(4-((((1r,3r)-3-((2-(2,6-dioxopiperidin-3-yl)-7-(methoxy-d3)-1,3-dioxoisoindolin-5-yl)oxy)cyclobutyl) (isopropyl)amino)methyl)piperidin-1-yl)pyrazine-2-carboxamide], the DC50 was under 1 nM. Turning to `COc1cc(O[C@H]2C(C)(C)[C@H](NC(=O)c3cnc(N4CCC(CN5CC(Oc6ccc7c(c6)C(=O)N(C6CCC(=O)NC6=O)C7=O)C5)CC4)cn3)C2(C)C)ccc1C#N` (stereo partly shown) [compound 93, N-((1r,3r)-3-(4-cyano-3-methoxyphenoxy)-2,2,4,4-tetramethylcyclobutyl)-5-(4-((3-((2-(2,6-dioxopiperidin-3-yl)-1,3-dioxoisoindolin-5-yl)oxy)azetidin-1-yl)methyl)piperidin-1-yl)pyrazine-2-carboxamide], the DC50 was under 1 nM. As for `COc1cc(O[C@H]2C[C@H](N(CC3CCN(c4ncc(C(=O)N[C@H]5C(C)(C)[C@H](Oc6cc(C)c(C#N)c(C)c6)C5(C)C)cn4)CC3)C(C)C)C2)cc2c1C(=O)N(C1CCC(=O)NC1=O)C2=O` (stereo partly shown) [compound 79, N-((1r,3r)-3-(4-cyano-3,5-dimethylphenoxy)-2,2,4,4-tetramethylcyclobutyl)-2-(4-((((1r,3r)-3-((2-(2,6-dioxopiperidin-3-yl)-7-methoxy-1,3-dioxoisoindolin-5-yl)oxy)cyclobutyl) (isopropyl)amino)methyl)piperidin-1-yl)pyrimidine-5-carboxamide], the DC50 was under 1 nM. Consider `CCOc1cc(O[C@H]2C(C)(C)[C@H](NC(=O)c3ccc(N4CC(CN(C(C)C)[C@H]5C[C@H](Oc6ccc7c(c6)C(=O)N(C6CCC(=O)NC6=O)C7=O)C5)C4)cc3)C2(C)C)ccc1C#N` (stereo partly shown) [compound 217, N-((1r,3r)-3-(4-cyano-3-ethoxyphenoxy)-2,2,4,4-tetramethylcyclobutyl)-4-(3-((((1r,3r)-3-((2-(2,6-dioxopiperidin-3-yl)-1,3-dioxoisoindolin-5-yl)oxy)cyclobutyl) (isopropyl)amino)methyl)azetidin-1-yl)benzamide], for which the DC50 was under 1 nM.

With `COc1cc(O[C@H]2C[C@H](N(CC3CCN(c4ncc(C(=O)N[C@H]5C(C)(C)[C@H](Oc6cc(C)c(C#N)c(C)c6)C5(C)C)cn4)CC3)CC(F)(F)F)C2)cc2c1C(=O)N(C1CCC(=O)NC1=O)C2=O` (stereo partly shown) [compound 179, N-((1r,3r)-3-(4-cyano-3,5-dimethylphenoxy)-2,2,4,4-tetramethylcyclobutyl)-2-(4-((((1r,3r)-3-((2-(2,6-dioxopiperidin-3-yl)-7-methoxy-1,3-dioxoisoindolin-5-yl)oxy)cyclobutyl)(2,2,2-trifluoroethyl)amino)methyl)piperidin-1-yl)pyrimidine-5-carboxamide], the DC50 is under 1 nM.

On to `COc1cc(O[C@H]2C(C)(C)[C@H](NC(=O)c3ccc(N4CC(CN(C(C)C)[C@H]5C[C@H](Oc6ccc7c(c6)C(=O)N(C6CCC(=O)NC6=O)C7=O)C5)C4)cc3)C2(C)C)ccc1C#N` (mixture of isomers) [compound 176, rac-N-((1r,3r)-3-(4-cyano-3-methoxyphenoxy)-2,2,4,4-tetramethylcyclobutyl)-4-(3-((((1r,3r)-3-((2-(2,6-dioxopiperidin-3-yl)-1,3-dioxoisoindolin-5-yl)oxy)cyclobutyl) (isopropyl)amino)methyl)azetidin-1-yl)benzamide], for which the DC50 is under 1 nM. Still for that read-out and setting: the value for `COc1cc(O[C@H]2C[C@H](N(CCN3CCOCC3)CC3CCN(c4ccc(C(=O)N[C@H]5C(C)(C)[C@H](Oc6cc(C)c(C#N)c(C)c6)C5(C)C)cc4)CC3)C2)cc2c1C(=O)N(C1CCC(=O)NC1=O)C2=O` (stereo partly shown) [compound 180, N-((1r,3r)-3-(4-cyano-3,5-dimethylphenoxy)-2,2,4,4-tetramethylcyclobutyl)-4-(4-((((1r,3r)-3-((2-(2,6-dioxopiperidin-3-yl)-7-methoxy-1,3-dioxoisoindolin-5-yl)oxy)cyclobutyl)(2-morpholinoethyl)amino)methyl)piperidin-1-yl)benzamide] was under 1 nM; that for `COc1cc(O[C@H]2C[C@H](N(C)CC3CCN(c4cnc(C(=O)N[C@H]5C(C)(C)[C@H](Oc6cc(C)c(C#N)c(C)c6)C5(C)C)cn4)CC3)C2)cc2c1C(=O)N(C1CCC(=O)NC1=O)C2=O` (mixture of isomers) [compound 218, rac-N-((1r,3r)-3-(4-cyano-3,5-dimethylphenoxy)-2,2,4,4-tetramethylcyclobutyl)-5-(4-((((1r,3r)-3-((2-(2,6-dioxopiperidin-3-yl)-7-methoxy-1,3-dioxoisoindolin-5-yl)oxy)cyclobutyl) (methyl)amino)methyl)piperidin-1-yl)pyrazine-2-carboxamide] was under 1 nM; that for `CCc1c(O[C@H]2C[C@H](N(CC3CCN(c4cnc(C(=O)N[C@H]5C(C)(C)[C@H](Oc6ccc(C#N)c(Cl)c6)C5(C)C)cn4)CC3)C(C)C)C2)ccc2c1CN(C1CCC(=O)NC1=O)C2=O` (stereo partly shown) [compound 120, N-((1r,3r)-3-(3-chloro-4-cyanophenoxy)-2,2,4,4-tetramethylcyclobutyl)-5-(4-((((1r,3r)-3-((2-(2,6-dioxopiperidin-3-yl)-4-ethyl-1-oxoisoindolin-5-yl)oxy)cyclobutyl) (isopropyl)amino)methyl)piperidin-1-yl)pyrazine-2-carboxamide] was under 1 nM. The same measure, in the same setting: to `Cc1cc(O[C@H]2C(C)(C)[C@H](NC(=O)c3cnc(N4CCC(CN(CCN5CCOCC5)[C@H]5C[C@H](Oc6ccc7c(c6)C(=O)N(C6CCC(=O)NC6=O)C7=O)C5)CC4)cn3)C2(C)C)cc(C)c1C#N` (stereo partly shown) [compound 230, N-((1r,3r)-3-(4-cyano-3,5-dimethylphenoxy)-2,2,4,4-tetramethylcyclobutyl)-5-(4-((((1r,3r)-3-((2-(2,6-dioxopiperidin-3-yl)-1,3-dioxoisoindolin-5-yl)oxy)cyclobutyl)(2-morpholinoethyl)amino)methyl)piperidin-1-yl)pyrazine-2-carboxamide] belongs under 1 nM.

Broadly, the DC50 is the concentration at which degradation of the target reaches its halfway point.
